Calls of active or inactive are those of the source.
Experiments:
[1] = target: Arf-GAP with SH3 domain, ANK repeat and PH domain-containing protein 1 (Homo sapiens, UniProt Q9ULH1); type: functional;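 further: biochemical fluorescence polarization dose–response screen measuring inhibition of ASAP1; ASAP1 GAP domain stimulating GTP hydrolysis by truncated human ARF1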
[2] = target: ADP-ribosylation factor GTPase-activating protein 1 (Rattus norvegicus, UniProt Q62848); assay: Fluorescence polarization-based biochemical high throughput dose response screening assay to identify inhibitors of ADP-ribosylation factor GTPase activating protein 1 (ARFGAP1).; type: functional
Chain of ADP-ribosylation factor GTPase-activating protein 1 (Q62848 whole entry): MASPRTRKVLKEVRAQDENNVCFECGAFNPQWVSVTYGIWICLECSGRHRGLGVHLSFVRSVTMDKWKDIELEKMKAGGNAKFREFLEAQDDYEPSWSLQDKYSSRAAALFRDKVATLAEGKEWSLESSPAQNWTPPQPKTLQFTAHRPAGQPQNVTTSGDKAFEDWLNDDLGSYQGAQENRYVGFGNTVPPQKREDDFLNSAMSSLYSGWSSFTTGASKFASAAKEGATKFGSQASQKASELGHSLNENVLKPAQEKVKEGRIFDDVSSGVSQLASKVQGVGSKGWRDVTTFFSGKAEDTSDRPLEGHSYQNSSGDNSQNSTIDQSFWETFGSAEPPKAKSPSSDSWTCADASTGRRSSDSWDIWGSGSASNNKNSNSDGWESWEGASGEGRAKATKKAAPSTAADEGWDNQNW

[3] = toxicity to human hepatoma HepG2 cells – cell-based, cherry-picked samples, cytotoxicity control, dose response (AID 1159577); type: functional
[4] = P. falciparum Dd2 growth inhibitors, dose response, SYBR Green, cherry-picked samples (AID 1159567); type: functional, cell-based
[5] = target: Bifunctional protein GlmU (Mycobacterium tuberculosis, UniProt P9WMN3); assay: Inhibitors of Mycobacterial Glucosamine-1-phosphate acetyl transferase (GlmU). Secondary screen.; set-up: species or system Mycobacterium tuberculosis H37Rv
Chain of Bifunctional protein GlmU (P9WMN3 whole entry): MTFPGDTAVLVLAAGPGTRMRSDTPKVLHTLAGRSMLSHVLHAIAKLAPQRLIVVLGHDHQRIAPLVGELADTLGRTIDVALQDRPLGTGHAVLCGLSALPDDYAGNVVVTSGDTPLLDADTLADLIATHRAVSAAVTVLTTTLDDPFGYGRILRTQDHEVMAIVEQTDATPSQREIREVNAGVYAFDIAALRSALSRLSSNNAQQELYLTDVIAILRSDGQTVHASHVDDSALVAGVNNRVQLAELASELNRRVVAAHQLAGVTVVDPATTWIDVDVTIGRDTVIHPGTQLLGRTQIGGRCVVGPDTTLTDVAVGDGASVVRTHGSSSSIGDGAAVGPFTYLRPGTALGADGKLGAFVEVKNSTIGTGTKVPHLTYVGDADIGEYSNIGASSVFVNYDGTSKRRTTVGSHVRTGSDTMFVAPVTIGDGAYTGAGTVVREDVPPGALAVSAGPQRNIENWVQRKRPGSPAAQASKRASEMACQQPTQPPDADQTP

[6] = general mammalian cell viability loss – inhibitor set, cherry-pick, set 2, cytotoxicity control for miR-122 modulator project, dose response (AID 720697); type: functional, cell-based
[7] = target: Long-chain-fatty-acid--AMP ligase FadD28 (Mycobacterium tuberculosis, UniProt P9WQ59); assay: Fluorescence polarization aasay to screen for inhibitors that compete for the binding of FadD28 to a bisubstrate Measured in Biochemical System Using Plate Reader - 2147-01_Inhibitor_Dose_CherryPick_Activity.; type: functional, Mycobacterium tuberculosis H37Rv
Chain of Long-chain-fatty-acid--AMP ligase FadD28 (P9WQ59 whole entry): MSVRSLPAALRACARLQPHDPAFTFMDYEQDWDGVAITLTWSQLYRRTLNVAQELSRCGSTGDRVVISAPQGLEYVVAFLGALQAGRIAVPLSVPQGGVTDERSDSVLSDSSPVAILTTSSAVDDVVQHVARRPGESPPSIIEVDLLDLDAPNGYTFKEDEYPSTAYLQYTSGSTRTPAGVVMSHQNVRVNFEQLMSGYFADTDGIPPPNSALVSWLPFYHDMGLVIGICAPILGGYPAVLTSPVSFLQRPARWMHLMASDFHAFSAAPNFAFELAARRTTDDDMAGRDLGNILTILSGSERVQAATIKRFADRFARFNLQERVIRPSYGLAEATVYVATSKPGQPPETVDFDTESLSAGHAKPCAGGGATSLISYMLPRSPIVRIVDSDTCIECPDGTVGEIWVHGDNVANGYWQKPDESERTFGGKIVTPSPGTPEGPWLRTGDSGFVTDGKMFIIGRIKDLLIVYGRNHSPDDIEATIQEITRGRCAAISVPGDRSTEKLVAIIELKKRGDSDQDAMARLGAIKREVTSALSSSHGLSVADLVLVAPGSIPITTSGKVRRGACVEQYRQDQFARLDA

[8] = target: RNA-editing ligase 1, mitochondrial (Trypanosoma brucei brucei, UniProt P86926); assay: inhibition of trypanosome RNA editing ligase – biochemical, fluorescence, Trypanosoma brucei, dose response (AID 1117295); type: functional
Chain of RNA-editing ligase 1, mitochondrial (P86926 whole entry): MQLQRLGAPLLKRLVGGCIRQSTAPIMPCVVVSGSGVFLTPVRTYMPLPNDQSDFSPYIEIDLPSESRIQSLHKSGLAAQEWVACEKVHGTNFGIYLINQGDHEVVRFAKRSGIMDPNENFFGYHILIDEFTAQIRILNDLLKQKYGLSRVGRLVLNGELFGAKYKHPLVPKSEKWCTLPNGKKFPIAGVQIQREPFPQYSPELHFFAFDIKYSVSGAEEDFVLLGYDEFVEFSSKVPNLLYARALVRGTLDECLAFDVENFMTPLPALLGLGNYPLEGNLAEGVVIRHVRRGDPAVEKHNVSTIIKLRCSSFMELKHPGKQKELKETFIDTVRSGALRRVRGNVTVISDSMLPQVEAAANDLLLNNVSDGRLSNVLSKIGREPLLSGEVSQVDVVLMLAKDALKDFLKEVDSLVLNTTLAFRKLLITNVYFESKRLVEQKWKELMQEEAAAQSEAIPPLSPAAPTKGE

cells = type: functional, cell-based
[9] = viability loss in HeLa cells – cytotoxicity control for MgcRacGAP inhibitor project, dose response (AID 624300); type: functional
[10] = target: Photoreceptor-specific nuclear receptor (Homo sapiens, UniProt Q9Y5X4); type: functional, cell-based;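 further: CHO-S cells with Gal4-NCOR and VP16-NR2E3 two-hybrid luciferase reporter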
Chain of Photoreceptor-specific nuclear receptor (Q9Y5X4 whole entry, the tested form may be a part): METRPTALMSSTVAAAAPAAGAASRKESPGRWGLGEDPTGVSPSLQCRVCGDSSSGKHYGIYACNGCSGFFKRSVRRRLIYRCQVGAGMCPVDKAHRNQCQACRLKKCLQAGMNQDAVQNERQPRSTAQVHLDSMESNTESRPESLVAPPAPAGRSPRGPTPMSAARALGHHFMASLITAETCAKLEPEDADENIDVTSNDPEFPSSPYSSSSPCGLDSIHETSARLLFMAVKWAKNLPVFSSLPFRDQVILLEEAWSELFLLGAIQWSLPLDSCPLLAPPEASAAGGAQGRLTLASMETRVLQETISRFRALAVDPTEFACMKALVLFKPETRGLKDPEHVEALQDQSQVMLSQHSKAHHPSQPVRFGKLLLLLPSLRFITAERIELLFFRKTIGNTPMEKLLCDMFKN

[11] = target: T1, Rac GTPase-activating protein 1 (Homo sapiens, UniProt Q9H0H5); assay: blockers of MgcRacGAP-driven Rac1 GTP hydrolysis – biochemical, ADP Hunter fluorescence, primary and confirmatory, confirmation (AID 624330); type: functional
T1 sequence (Q9H0H5 whole entry): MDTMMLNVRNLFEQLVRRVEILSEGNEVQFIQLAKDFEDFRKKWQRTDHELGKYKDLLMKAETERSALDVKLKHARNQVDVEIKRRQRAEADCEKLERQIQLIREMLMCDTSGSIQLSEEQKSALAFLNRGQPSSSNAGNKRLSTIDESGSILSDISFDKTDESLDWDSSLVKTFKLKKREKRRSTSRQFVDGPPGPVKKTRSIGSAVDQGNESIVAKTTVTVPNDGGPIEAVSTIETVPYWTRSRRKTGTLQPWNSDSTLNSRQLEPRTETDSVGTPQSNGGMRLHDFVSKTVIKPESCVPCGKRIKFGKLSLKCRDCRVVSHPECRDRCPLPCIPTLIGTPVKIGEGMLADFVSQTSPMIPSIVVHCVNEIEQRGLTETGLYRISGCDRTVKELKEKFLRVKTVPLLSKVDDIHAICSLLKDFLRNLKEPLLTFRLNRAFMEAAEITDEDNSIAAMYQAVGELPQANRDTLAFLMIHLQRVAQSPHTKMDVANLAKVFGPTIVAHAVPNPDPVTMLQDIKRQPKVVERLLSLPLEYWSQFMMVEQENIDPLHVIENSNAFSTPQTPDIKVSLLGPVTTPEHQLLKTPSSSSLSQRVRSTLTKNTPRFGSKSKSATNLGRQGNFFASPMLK

[12] = HGIII-sPLA2 enzyme inhibition potency – biochemical, QFRET, IC50, dose response (AID 743457);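 further: green fluorescence rise as the enzyme cleaves BODIPY PC-A2 in liposomes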
[13] = SNU-C1 cell viability reduction, dose response, CellTiter-Glo luminescence (AID 1117323); type: functional, cell-based
[14] = cytotoxicity toward HCT116 cells – cell-based, CellTiter-Glo luminescence, IC50, dose response (AID 1117332); type: functional; conditions: HCT-116
[15] = CellTiter-Glo luminescence survival assay, SW480 colon tumor line, concentration-response curve, half-maximal inhibitory concentration (AID 1117338); type: functional
[16] = RKO cell viability reduction, dose response, CellTiter-Glo luminescence (AID 1117322); type: functional
[17] = Reduced DLD-1 viability, concentration-response, CellTiter-Glo luminescence (AID 1117352); type: functional
[18] = cytotoxicity toward HT-29 cells – cell-based, CellTiter-Glo luminescence, IC50, dose response (AID 1117330); type: functional
[19] = cytotoxicity toward Colo320 cells – cell-based, CellTiter-Glo luminescence, IC50, dose response (AID 1117334); type: functional; conditions: COLO 320
[20] = HCT116 cell viability decrease, GSK3B pretreatment – CellTiter-Glo, IC50, dose response (AID 1117339); type: functional; conditions: HCT-116
[21] = growth inhibition of PfATP4-mutant resistant parasites – NITD609-resistant line, SYBR Green, dry powder, dose response (AID 1159571); type: functional, cell-based;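 further: parasites synchronized at ring stage by sorbitol before testing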
[22] = Dd2 malaria parasite growth inhibition potency – SYBR Green, dry powder samples, dose response (AID 1159566); type: functional, cell-based;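 further: potency for growth inhibition with lower SYBR green DNA signal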
[23] = growth inhibition of yeast DHODH-expressing 3D7 parasites – SYBR Green, dry powder samples, dose response (AID 1159570); type: functional, cell-based;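 further: parasite growth measured after 72 hours of compound exposure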

Chain of Arf-GAP with SH3 domain, ANK repeat and PH domain-containing protein 1 (Q9ULH1 whole entry, the tested form may be a part): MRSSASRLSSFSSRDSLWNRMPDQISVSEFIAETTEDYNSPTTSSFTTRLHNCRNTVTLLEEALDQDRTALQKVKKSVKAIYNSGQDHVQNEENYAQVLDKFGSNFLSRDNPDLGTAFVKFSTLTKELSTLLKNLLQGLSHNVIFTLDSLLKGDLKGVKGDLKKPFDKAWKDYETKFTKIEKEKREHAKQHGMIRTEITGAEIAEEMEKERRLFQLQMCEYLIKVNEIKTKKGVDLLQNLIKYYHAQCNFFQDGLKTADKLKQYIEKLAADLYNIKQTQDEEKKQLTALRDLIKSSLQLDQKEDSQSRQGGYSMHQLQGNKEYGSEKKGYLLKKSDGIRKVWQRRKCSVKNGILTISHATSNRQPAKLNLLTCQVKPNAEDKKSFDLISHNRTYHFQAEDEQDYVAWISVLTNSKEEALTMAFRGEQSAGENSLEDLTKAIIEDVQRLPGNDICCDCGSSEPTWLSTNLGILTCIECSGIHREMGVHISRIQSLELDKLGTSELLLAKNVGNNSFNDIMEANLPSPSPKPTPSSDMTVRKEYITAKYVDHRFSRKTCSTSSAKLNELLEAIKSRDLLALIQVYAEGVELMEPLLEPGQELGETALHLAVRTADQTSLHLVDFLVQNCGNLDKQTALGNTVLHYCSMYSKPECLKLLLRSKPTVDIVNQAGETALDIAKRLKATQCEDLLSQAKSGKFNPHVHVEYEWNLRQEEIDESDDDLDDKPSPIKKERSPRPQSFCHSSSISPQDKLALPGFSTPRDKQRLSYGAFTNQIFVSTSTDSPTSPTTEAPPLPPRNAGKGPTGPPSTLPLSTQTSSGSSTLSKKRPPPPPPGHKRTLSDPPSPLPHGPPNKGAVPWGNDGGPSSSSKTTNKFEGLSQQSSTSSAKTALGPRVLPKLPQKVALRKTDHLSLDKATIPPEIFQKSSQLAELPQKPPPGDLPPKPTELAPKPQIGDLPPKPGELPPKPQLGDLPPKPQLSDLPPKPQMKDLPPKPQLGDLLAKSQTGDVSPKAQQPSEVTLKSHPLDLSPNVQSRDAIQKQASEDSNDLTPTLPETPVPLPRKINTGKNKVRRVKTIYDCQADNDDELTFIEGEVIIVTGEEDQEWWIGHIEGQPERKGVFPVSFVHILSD

## O=C(NCc1ccncc1)C(=O)N/N=C/c1ccc(OCc2ccccc2)cc1
[1]
  IC50: 13.2 µM (inactive)
[2]
  IC50: 10.3 µM (inactive)

## CCS(=O)(=O)N1CCCCN2[C@H](C1)[C@@H](c1ccc(C#Cc3ccccc3OC)cc1)[C@@H]2CO
[3]
  AC50: > 39 µM (inactive)
[4]
  AC50: 4.67 µM (active)

## Nc1nonc1C(=O)N/N=C/c1ccc(-c2cccc(C(=O)O)c2)o1
[5]
  IC50: 188 µM (active)

## CCCCN1C=C(C(=O)OC)C(c2ccccc2C(F)(F)F)C(C(=O)OC)=C1
[6]
  AC50: 8.63 µM (active)

## COc1cc2c(cc1NC(=O)c1ccccc1-c1ccccc1C(=O)O)-c1ccccc1C2
[7]
  AC50: > 100 µM (inactive)

## C=CCNC1=NC(c2ccccc2C(F)(F)F)C(C(=O)OC)=C(C)N1Cc1ccc(C(F)(F)F)cc1 (stereo not given)
[8]
  IC50: > 96.6 µM (inactive)

## CCc1nnc(NS(=O)(=O)c2ccc(N/C=C3/C(=O)NC(=O)N(c4ccccc4)C3=O)cc2)s1
cells
  IC50: 64.4 µM (inactive)

## C[C@H]1CCC/C=C/[C@@H]2C[C@H](O)C[C@H]2[C@H](O)[C@H]([S+]([O-])c2ccc(O)cc2)CC(=O)O1 (stereo not given in full)
[9]
  CC50: 4.03 µM (active)
[10]
  IC50: 2.05 µM (active)
[11]
  IC50: 231 µM (active)

## COc1ccc2c3c(n(C)c2c1)[C@H](CO)NCC31CCN(Cc2ccc(Cl)cc2)CC1
[3]
  AC50: 17.7 µM (active)
[4]
  AC50: 0.504 µM (active)

## CC(C)Oc1ccc(CC(=O)NN=C(S)Nc2ccccc2)cc1
[12]
  IC50: > 122 µM (inactive)

## CCCn1cnc2c1c(=O)n(CCCCC(C)=O)c(=O)n2C [PROPENTOFYLLINE]
[13]
  IC50: > 20 µM (inactive)
[14]
  IC50: > 20 µM (inactive)
[15]
  IC50: > 20 µM (inactive)
[16]
  IC50: > 20 µM (inactive)
[17]
  IC50: > 20 µM (inactive)
[18]
  IC50: > 20 µM (inactive)
[19]
  IC50: > 20 µM (inactive)
[20]
  IC50: > 20 µM (inactive)

## O=C(O)CCC(=O)OC[C@@H](NC(=O)C(Cl)Cl)[C@H](O)c1ccc([N+](=O)[O-])cc1 [CHLORAMPHENICOL SODIUM SUCCINATE]
[13]
  IC50: > 20 µM (inactive)
[14]
  IC50: > 20 µM (inactive)
[15]
  IC50: > 20 µM (inactive)
[16]
  IC50: > 20 µM (inactive)
[17]
  IC50: > 20 µM (inactive)
[18]
  IC50: > 20 µM (inactive)
[19]
  IC50: > 20 µM (inactive)
[20]
  IC50: > 20 µM (inactive)

## COc1ccc(-c2ccccc2[C@H]2[C@@H](C#N)N(C(=O)NC(C)C)[C@H]2CO)cc1
[21]
  AC50: 4.81 µM (active)
[22]
  AC50: 2.21 µM (active)
[4]
  AC50: 2.04 µM (active)
[23]
  AC50: 2.01 µM (active)

From ChEMBL document CHEMBL1201862, “PubChem BioAssay data set” (2004)
